Experimental findings from US8143254B2, “Methods for modulating ion channels” (Cornell Research Foundation, Inc., priority 2005, dated 2012) are described below.

In the assay the target is T1, Kv4.2 (Homo sapiens, UniProt Q9NZV8).
T1 construct: expressed in transfected cells; host or cells: Xenopus laevis oocytes (cRNA injection, pRAT vector)
T1 sequence (Q9NZV8 1-630): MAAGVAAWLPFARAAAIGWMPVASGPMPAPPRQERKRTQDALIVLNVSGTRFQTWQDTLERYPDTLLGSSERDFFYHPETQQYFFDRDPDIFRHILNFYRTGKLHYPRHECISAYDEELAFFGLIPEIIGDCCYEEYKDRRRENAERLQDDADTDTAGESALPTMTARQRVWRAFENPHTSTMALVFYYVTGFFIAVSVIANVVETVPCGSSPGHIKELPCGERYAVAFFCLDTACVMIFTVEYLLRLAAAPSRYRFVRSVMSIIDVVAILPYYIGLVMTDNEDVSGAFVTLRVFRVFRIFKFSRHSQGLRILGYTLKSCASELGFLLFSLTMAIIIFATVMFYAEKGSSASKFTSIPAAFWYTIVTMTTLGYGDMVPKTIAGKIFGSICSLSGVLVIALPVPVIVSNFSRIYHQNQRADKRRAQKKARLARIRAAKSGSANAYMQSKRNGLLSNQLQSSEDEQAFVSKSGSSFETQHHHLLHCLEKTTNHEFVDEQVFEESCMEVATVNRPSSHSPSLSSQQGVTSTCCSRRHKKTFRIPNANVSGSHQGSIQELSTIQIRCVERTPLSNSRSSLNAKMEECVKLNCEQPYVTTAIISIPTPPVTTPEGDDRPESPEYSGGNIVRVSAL
As to the kind of experiment: TEVC of X. laevis oocytes expressing Kv4.2. It is filed as cell-based. The text has this:
Kv2.1 mutants were constructed using the QuickChange Multi Site-Directed Mutagenesis Kit (Stratagene, La Jolla, Calif.). Mutant Kv2.1 genes (in the pGA1 oocyte expression vector for oocyte expression) were sequenced in their entirety to confirm appropriate mutations and check for inadvertent mutations, and then subcloned into a wild-type pGA1 backbone. For oocyte expression, Kv3.4 was in pBF1, Kv4.2 was in pRAT. cRNA transcripts were produced from SacII-linearized (Kv2.1), Mlullinearized (Kv3.4) and Not1-linearized (Kv4.2) DNA templates using the T3 (Kv2.1), SP6 (Kv3.4) and T7 (Kv4.2) mMessage mMachine kits (Ambion, Austin, Tex.). cRNA was quantified by spectrophotometry and its size integrity verified by gel electophoresis. Defolliculated stage V and VI Xenopus laevis oocytes (purchased from Nasco, Grand Island, N.Y.) were injected with 5 ng of cRNA encoding Kv2.1, Kv3.4 or Kv4.2. Chinese Hamster Ovary (CHO) cells were transfected with 0.25 μg Kv2.1 cDNA, 2 μg blank plasmid and 2 μg Green fluorescent Protein in pBOB using Supetfect transfection reagent (Qiagen) 24 hours before whole-cell voltage clamp studies.
Whole-cell two-electrode voltage-clamp (TEVC) recordings were performed on X laevis oocytes expressing cloned Kv2.1, Kv3.4 or Kv4.2 using a Warner OC-725C amplifier and pClamp9 (Axon Instruments, Foster City, Calif.) software. Oocytes were bathed in a small-volume Warner oocyte bath and viewed with a Fisher dissection microscope. Bath solution for whole-cell oocyte recordings was (in mM): 96 NaCl, 4 KCl, 0.7 MgCl2, 1 CaCl2, 10 HEPES (pH 7.4); whole-cell oocyte TEVC pipettes were of 0.2-2 M resistance when filled with 3 M KCl. Experiments were performed 24-48 hours after cRNA injection. For assessment of current-voltage relationships in the absence or presence of dabco derivatives, oocytes were held at −80 mV, stepped for 2 seconds at voltages between −80 mV and +60 mV in 20 mV steps (Kv2.1) or between −80 and +50 mV in 10 mV steps (Kv3.4), then held for 500 ms at −40 mV before returning to the holding potential. […]

For the compound `c1cc(C[N+]23CCN(CC2)CC3)ccc1C[N+]12CCN(CC1)CC2` [JC638.2α, α,α′-[bis(4-aza-1-azoniabicyclo[2.2.2]octanyl)]p-xylene], the “block of Kv4.2” value (0.5 mM) was 38%. For the compound `CCCCCCCCCCCC[N+]12CCN(CC1)CC2` [JE188, 1-aza-4-azonia-4-dodecylbicyclo[2.2.2]octane], where the note is “100 μM”, the “block of Kv4.2” value was 3%. In the case of `C(CCCC[N+]12CCN(CC1)CC2)CCC[N+]12CCN(CC1)CC2` [TG27, 1,8-[bis(4-aza-1-azoniabicyclo[2.2.2]octanyl)]octane], the “block of Kv4.2” value (1 mM) stood at 3%.
